Counter-ions that a name gives are not always drawn.
What was measured:
[1] = Dilution of PEG-400 or polysorbate-80 solution of sertraline base into 0.9% NaCl (Example 3); format: physicochemical
Description: One ml of this test solution was added to 15 ml normal saline (0.9% NaCl, pH 4.2), and was stirred vigorously.

[2] = Equilibrium solubility of sertraline base and hydrochloride in selected vehicles (Table 4-4); format: physicochemical; conditions: vehicle Miglyol 810
Excerpt: Water-immiscible vehicles do have this capacity.

[3] = Precipitation studies with sertraline base in 0.1N HCl and phosphate buffered saline pH 5.8 (Example 4)
Description: Solution (a) is a simulated gastric fluid, and solution (b) is a simulated intestinal fluid.
PEG400 is miscible with aqueous media, while Capmul®-MCM and safflower oil are not. One milliliter of the test solution was added to 10 mL of (a) 0.1N HCl solution and (b) phosphate buffered saline (PBS) pH 5.8 and was stirred vigorously.
Mobile phase: per liter of mobile phase: 270 mL of tetrahydrofuran, 230 mL of methanol and 400 mL of buffer. The buffer consisted of 25 mM triethylamine phosphate. It was prepared by adding 1.7 mL of phosphoric acid and 3.5 mL of tirethylamine to 1 liter of water.

[4] = human, in vivo
[5] = clinical; conditions: human, in vivo, po
[6] = dosed as Zoloft tablets; cited from earlier work
[7] = Human crossover pharmacokinetics of 200 mg sertraline delivered to various portions of the gastrointestinal tract (Example 1); format: in vivo; conditions: Group A
Description: Dosing was via (1) oral tablets, or (2) infusion of a solution through a nasoenteric tube into the stomach, duodenum, or ileocecal region of the small intestine, or (3) infusion into the transverse colon via anal intubation.
The infusions were administered as a 2 mg/ml solution at a rate of 20 ml/min for 5 min.
Analysis was carried out by capillary gas chromatography with electron capture detection. […] Tmax is the time at which Cmax is achieved.

[8] = Chloride-induced gelling of sertraline salt solutions; format: physicochemical
[9] = physchem; conditions: simulated gastric fluid
[10] = in water; cited from earlier work

CN[C@H]1CC[C@@H](c2ccc(Cl)c(Cl)c2)c2ccccc21 [Free base, sertraline free base]
Observed Concentration after Dilution in Saline after 2 hr ([1]; vehicle Polysorbate-80, 50 mgA/ml in vehicle, 1 ml into 15 ml 0.9% NaCl): 3.1 mgA/ml | Equilibrium solubility in Miglyol 810 [2]: >50 mgA/ml | Concentration of sertraline in aqueous layer ([3]; Capmul MCM 50 mgA/mL, 1 mL into 10 mL phosphate buffered saline pH 5.8, 120 minutes): 0.16 mgA/mL | Concentration of sertraline in aqueous layer ([3]; Safflower oil 50 mgA/mL, 1 mL into 10 mL 0.1 N HCl, 120 minutes): 0.48 mgA/mL | Concentration of sertraline in aqueous layer ([3]; Safflower oil 50 mgA/mL, 1 mL into 10 mL phosphate buffered saline pH 5.8, 120 minutes): 0.19 mgA/mL | Precipitation of sertraline ([3]; solution in safflower oil added to phosphate buffered saline): little or no precipitation

CN[C@H]1CC[C@@H](c2ccc(Cl)c(Cl)c2)c2ccccc21 [sertraline]
Precipitation upon addition to a NaCl solution ([1]; PEG400 solution of sertraline): a portion of the sertraline precipitates | Precipitation upon addition to a NaCl solution ([1]; Polysorbate-80 solution of sertraline): no precipitation occurs | Intrinsic absorption rate constant (ARC) [4]: greater than 0.025 min^−1 | Tmax [5]: < 1.5 h | Absolute oral bioavailability [6]: 54% | AUCO-LAST ([7]; Ileocecal Infusion of solution): 727.1 ng·h/mL | AUCO-LAST ([7]; Oral Tablet (two 100 mg Zoloft tablets)): 1174.5 ng·h/mL | AUCO-LAST ([7]; Stomach Infusion of solution): 923.1 ng·h/mL | Precipitation of sertraline ([3]; PEG 400 solution added into either 0.1 N HCl or phosphate buffered saline): precipitation of a large proportion of sertraline | Portion of sertraline remaining in solution ([3]; vehicle Capmul-MCM, 0.1 N HCl or phosphate buffered saline): > 95 % of added amount

sertraline acetate
State of saturated solution at physiological chloride concentrations [8]: thick pasty solid which does not flow

CN[C@H]1CC[C@@H](c2ccc(Cl)c(Cl)c2)c2ccccc21 [Hydrochloride, sertraline hydrochloride]
solubility [9]: ~3000 µg/mL | Equilibrium solubility in Miglyol 810 ([2]; hydrochloride): greater than 0.1 mgA/ml

vitamin E
Aqueous solubility [10]: practically insoluble in water

CN[C@H]1CC[C@@H](c2ccc(Cl)c(Cl)c2)c2ccccc21 [Lactate, sertraline lactate]
State of saturated solution at physiological chloride concentrations [8]: thick pasty solid which does not flow
